{"source": "patent US20250059139A1", "about": "“COMPOUNDS FOR TREATMENT OF CANCER” (THE JOHNS HOPKINS UNIVERSITY, priority 2021, published 2025)", "key": {"[1]": {"test_system": "CWR22-RH PDXs", "assay": "RNA sequencing of in vivo growing CWR22-RH PDXs in castrate hosts", "set-up": "species or system human", "settings": "TasQ 10 mg/kg/d orally vs. vehicle control", "description": "RNA Sequencing Analysis of In vivo Growing Xenografts. This was performed as described previously (Brennen 2021; Zhu 2020) with read counts normalized per kilo base-pair gene length and per million reads library size (RPKM).\nRNAseq analysis was performed on CWR22-RH PDX tissue growing in the compromised hypoxic TME of castrated hosts with or without daily oral TasQ (10 mg/kg/d). Such dosing produces optimal CWR22-RH growth inhibition (FIG. 1) consistent with downregulation of the expression of proliferation-associated target genes in addition to the AR and its target genes (Table 1A). In addition, such daily TasQ treatment lowers HIF-1α protein in tumors by >50% (Olsson 2010) suppressing HIF1-dependent cell survival target genes (Table 1B). […] As predicted at this drug level, elevated expression of AHR and a series of its target genes is observed (Table 1C)."}, "[2]": {"molecular_target": "T1, fl-HDAC4 (wild-type) (Homo sapiens, UniProt P56524)", "T1 construct": "Full-length (fl) [A.A. 1-1082] recombinant human histone deacetylase 4 (rhHDAC4) protein; FLAG (N); GST (given as 'with or without'); made in house; host or cells: HEK293-T", "T1 sequence (P56524 whole entry)": "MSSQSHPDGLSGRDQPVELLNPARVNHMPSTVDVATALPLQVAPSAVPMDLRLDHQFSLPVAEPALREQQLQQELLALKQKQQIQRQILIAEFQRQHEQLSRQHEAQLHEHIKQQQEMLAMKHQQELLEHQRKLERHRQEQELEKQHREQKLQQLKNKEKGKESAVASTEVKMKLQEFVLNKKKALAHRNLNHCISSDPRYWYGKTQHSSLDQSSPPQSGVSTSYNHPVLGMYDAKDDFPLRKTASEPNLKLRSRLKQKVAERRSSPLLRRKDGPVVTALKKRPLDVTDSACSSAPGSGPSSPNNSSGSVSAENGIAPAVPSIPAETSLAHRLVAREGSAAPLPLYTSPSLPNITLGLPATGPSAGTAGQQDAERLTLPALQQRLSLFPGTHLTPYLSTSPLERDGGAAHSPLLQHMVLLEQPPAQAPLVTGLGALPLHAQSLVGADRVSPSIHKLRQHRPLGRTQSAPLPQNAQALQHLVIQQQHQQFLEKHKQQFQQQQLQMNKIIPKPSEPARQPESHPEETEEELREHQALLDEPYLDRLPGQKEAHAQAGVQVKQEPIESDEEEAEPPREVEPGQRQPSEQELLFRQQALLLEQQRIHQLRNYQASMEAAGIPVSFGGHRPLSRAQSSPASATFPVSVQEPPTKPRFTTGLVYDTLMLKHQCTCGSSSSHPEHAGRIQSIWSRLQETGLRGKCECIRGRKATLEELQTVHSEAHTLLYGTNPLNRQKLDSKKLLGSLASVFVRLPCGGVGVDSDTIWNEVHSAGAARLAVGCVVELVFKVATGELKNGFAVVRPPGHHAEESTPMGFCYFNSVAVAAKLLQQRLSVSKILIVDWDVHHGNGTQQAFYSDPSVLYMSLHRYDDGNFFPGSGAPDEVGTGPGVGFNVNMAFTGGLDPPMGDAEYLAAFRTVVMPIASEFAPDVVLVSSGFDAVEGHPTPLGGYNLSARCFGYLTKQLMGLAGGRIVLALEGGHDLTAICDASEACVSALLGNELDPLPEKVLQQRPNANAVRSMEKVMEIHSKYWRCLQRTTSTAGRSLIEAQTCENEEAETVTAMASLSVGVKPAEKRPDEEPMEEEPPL", "assay": "SPR binding analysis TasQ / fl-HDAC4", "description": "Surface Plasmon Resonance (SPR) Binding Analysis. SPR analysis was performed on the Biacore 3000™ system using CM5 sensor chips, certified buffers (HBS-P—10 mM HEPES, 0.15 M NaCl, pH 7.4, containing 0.005% v/v Surfactant P; HBS-EP-HBS-P with 3 mM EDTA) and reagents for immobilization and surface regeneration from Biacore, GE Healthcare, Uppsala Sweden. Evaluation of sensorgrams was performed using the BIA-evaluation Software version 4.1 and GraphPad Prism 4. Buffer of protein reagents were changed to HBS-P on Zeba spin desalting columns (Thermo Scientific) prior to being used in SPR analysis (Isaacs 2013).\nA. Binding of wild-type and mutant forms of HDAC4 to immobilized TasQ. TasQ (ABR-215050; mol wt 406.4) was dissolved as a 40 mM solution in water with 1.5 equivalents of NaOH. TasQ with an amino-linker [i.e. —(CH2)2O(CH2)2—NH2](ABR-225180) in amide nitrogen position was used for amine coupling on to a Biacore CM5 sensor chip. A 1 mg/mL solution of ABR-225180 in HBS-P buffer was prepared and immobilized on a CM5 chip by injection at a flow rate of 5 or 10 μL/min until a stable response level was reached. Interaction of various HDAC4 forms with immobilized TasQ was studied by injection over this surface in HBS-P buffer containing 10 or 20 μM ZnCl2. Bound HDAC4 was removed by a pulse of 3 mM EDTA in HBS-P or 0.5 to 6.25 mM NaOH in water. In a second series of experiments, the ability of TasQ in solution to displace this binding was studied by pre-incubation of HDAC4 with TasQ as competitor.\nB. Binding of TasQ to immobilized HDAC4 and NCoR1. Different variants of HDAC4 (full-length wild-type and mutant forms and the truncated protein) and full-length NCoR1 were immobilized on a CM5 chip using random amine coupling. Briefly, proteins were dissolved in 10 mM sodium acetate buffer at pH 5.0 or 5.5 and immobilized to the aimed level using the standard protocol from GE Healthcare. Serially diluted TasQ in HBS-P buffer with 10 or 20 μM Zn was injected (for 2 or 3 min at a flow rate of 30 μl/min) either directly or after a 1st injection of 1 mM DTT to reduce cysteines in the zinc conformation site in HDAC4. Regeneration was made with a short pulse of HBS-EP.\nTo evaluate the conformational requirements for TasQ's binding to HDAC4, surface plasmon resonance (SPR) analysis was utilized. To maximize conformational flexibility, TasQ is immobilized onto the surface of a Biacore CM5 sensor chip via an amino-linker [i.e. —(CH2)2—O—(CH2)2—NH2] in its amide nitrogen position.\nBy comparison, Linomide even at >30 μM in solution binds only 10-15% of the immobilized fl-HDAC4 protein despite the presence of Zn^+2 (FIG. 14). […] The fact that the KD for binding of soluble TasQ to immobilized fl-HDAC4 is higher than the KD for binding of soluble fl-HDAC4 with immobilized TasQ is predictable. This is because the conformational dynamics of fl-HDAC4 protein immobilized on the chip are more restrictive due to the multiple random amine coupling than the conformational dynamics of TasQ immobilized via a single amino-linker.\nTo address this possibility, a competitive binding assay was developed based upon the ability of TasQ in solution to compete with immobilized TasQ on the SPR-chip for binding to fl-HDAC4."}, "[3]": {"test_system": "CYP1A1", "assay": "CYP1A1 mRNA induction in LNCaP cells (RT-PCR)", "assay_type": "cell-based", "settings": "human, read-out: EC50 as a CYP1A inducer in LNCaP cells", "excerpt": "Real-time quantitative PCR (Q-PCR) analysis. […] ID NO: 2) and […] ID NO: 3). […] ID NO: 4) and […] ID NO: 5)."}}, "note": "Read-outs that look alike come from different tables or passages of the source."}
{"smiles": "COc1cccc2c1c(O)c(C(=O)N(C)c1ccc(C(F)(F)F)cc1)c(=O)n2C", "note": "[TasQ, Tasquinimod]", "values": [{"measurement": "AGR2, AHR Target Genes (Fold Increases by TasQ)", "setting": "[1]", "value": 5.5, "unit": "fold"}, {"measurement": "AHR, AHR Target Genes (Fold Increases by TasQ)", "setting": "[1]", "value": 3.0, "unit": "fold"}, {"measurement": "ALDOC, HIF-1α Target Genes (Fold Decrease by TasQ)", "setting": "[1]", "value": "−1.4", "unit": "fold"}, {"measurement": "AR, AR Target Genes (Fold Decrease by TasQ)", "setting": "[1]", "value": "−2.0", "unit": "fold"}, {"measurement": "BHLHE41, MEF-2 Target Genes (Fold Increase by TasQ)", "setting": "[1]", "value": 2.9, "unit": "fold"}, {"measurement": "BNIP3, HIF-1α Target Genes (Fold Decrease by TasQ)", "setting": "[1]", "value": "−1.9", "unit": "fold"}, {"measurement": "CA12, MEF-2 Target Genes (Fold Increase by TasQ)", "setting": "[1]", "value": 2.7, "unit": "fold"}, {"measurement": "CAPN2, MEF-2 Target Genes (Fold Increase by TasQ)", "setting": "[1]", "value": 1.6, "unit": "fold"}, {"measurement": "CDC6, Proliferation Target Genes (Fold Decrease by TasQ)", "setting": "[1]", "value": "−1.5", "unit": "fold"}, {"measurement": "CDT1, Proliferation Target Genes (Fold Decrease by TasQ)", "setting": "[1]", "value": "−2.2", "unit": "fold"}, {"measurement": "CEACAM1, MEF-2 Target Genes (Fold Increase by TasQ)", "setting": "[1]", "value": 1.8, "unit": "fold"}, {"measurement": "CYP1B1, AHR Target Genes (Fold Increases by TasQ)", "setting": "[1]", "value": 10.0, "unit": "fold"}, {"measurement": "DTYMK, Proliferation Target Genes (Fold Decrease by TasQ)", "setting": "[1]", "value": "−1.6", "unit": "fold"}, {"measurement": "E2F1, Proliferation Target Genes (Fold Decrease by TasQ)", "setting": "[1]", "value": "−2.0", "unit": "fold"}, {"measurement": "EDN1, MEF-2 Target Genes (Fold Increase by TasQ)", "setting": "[1]", "value": 15.0, "unit": "fold"}, {"measurement": "GDF15, AHR Target Genes (Fold Increases by TasQ)", "setting": "[1]", "value": 2.3, "unit": "fold"}, {"measurement": "HILPDA, HIF-1α Target Genes (Fold Decrease by TasQ)", "setting": "[1]", "value": "−1.7", "unit": "fold"}, {"measurement": "IGF1, HIF-1α Target Genes (Fold Decrease by TasQ)", "setting": "[1]", "value": "−11.0", "unit": "fold"}, {"measurement": "IGFBP2, HIF-1α Target Genes (Fold Decrease by TasQ)", "setting": "[1]", "value": "−1.8", "unit": "fold"}, {"measurement": "IGFBP5, HIF-1α Target Genes (Fold Decrease by TasQ)", "setting": "[1]", "value": "−18.0", "unit": "fold"}, {"measurement": "KLKP1, AR Target Genes (Fold Decrease by TasQ)", "setting": "[1]", "value": "−2.3", "unit": "fold"}, {"measurement": "LDHA, HIF-1α Target Genes (Fold Decrease by TasQ)", "setting": "[1]", "value": "−1.5", "unit": "fold"}, {"measurement": "LOX, HIF-1α Target Genes (Fold Decrease by TasQ)", "setting": "[1]", "value": "−4.0", "unit": "fold"}, {"measurement": "MCM2, Proliferation Target Genes (Fold Decrease by TasQ)", "setting": "[1]", "value": "−1.9", "unit": "fold"}, {"measurement": "MCM3, Proliferation Target Genes (Fold Decrease by TasQ)", "setting": "[1]", "value": "−1.6", "unit": "fold"}, {"measurement": "MCM5, Proliferation Target Genes (Fold Decrease by TasQ)", "setting": "[1]", "value": "−2.0", "unit": "fold"}, {"measurement": "MKI67, Proliferation Target Genes (Fold Decrease by TasQ)", "setting": "[1]", "value": "−1.7", "unit": "fold"}, {"measurement": "NKX3.1, AR Target Genes (Fold Decrease by TasQ)", "setting": "[1]", "value": "−2.3", "unit": "fold"}, {"measurement": "NQO1, AHR Target Genes (Fold Increases by TasQ)", "setting": "[1]", "value": 2.9, "unit": "fold"}, {"measurement": "NR4A1, MEF-2 Target Genes (Fold Increase by TasQ)", "setting": "[1]", "value": 1.4, "unit": "fold"}, {"measurement": "NR4A2, MEF-2 Target Genes (Fold Increase by TasQ)", "setting": "[1]", "value": 1.8, "unit": "fold"}, {"measurement": "P4HA1, HIF-1α Target Genes (Fold Decrease by TasQ)", "setting": "[1]", "value": "−1.8", "unit": "fold"}, {"measurement": "PDK1, HIF-1α Target Genes (Fold Decrease by TasQ)", "setting": "[1]", "value": "−1.7", "unit": "fold"}, {"measurement": "PTN, HIF-1α Target Genes (Fold Decrease by TasQ)", "setting": "[1]", "value": "−6.1", "unit": "fold"}, {"measurement": "S100P, MEF-2 Target Genes (Fold Increase by TasQ)", "setting": "[1]", "value": 5.7, "unit": "fold"}, {"measurement": "SLC45A3, AR Target Genes (Fold Decrease by TasQ)", "setting": "[1]", "value": "−3.7", "unit": "fold"}, {"measurement": "THB5, MEF-2 Target Genes (Fold Increase by TasQ)", "setting": "[1]", "value": 8.0, "unit": "fold"}, {"measurement": "TIPARP, AHR Target Genes (Fold Increases by TasQ)", "setting": "[1]", "value": 3.4, "unit": "fold"}, {"measurement": "TMPRSS2, AR Target Genes (Fold Decrease by TasQ)", "setting": "[1]", "value": "−1.9", "unit": "fold"}, {"measurement": "TNC, HIF-1α Target Genes (Fold Decrease by TasQ)", "setting": "[1]", "value": "−2.5", "unit": "fold"}, {"measurement": "TTR, HIF-1α Target Genes (Fold Decrease by TasQ)", "setting": "[1]", "value": "−3.8", "unit": "fold"}, {"measurement": "VEGFB, HIF-1α Target Genes (Fold Decrease by TasQ)", "setting": "[1]", "value": "−1.5", "unit": "fold"}, {"measurement": "IC50", "setting": "[2]; competitive SPR assay, read-out: IC50 of TasQ in solution to reduce binding of fl-wild-type HDAC4 to immobilized TasQ", "value": 1.3, "unit": "µM"}, {"measurement": "Kd", "setting": "[2]; compound in solution, immobilized fl-HDAC4, n=4, read-out: KD", "value": 4.9, "unit": "µM"}, {"measurement": "Kd", "setting": "[2]; fl-HDAC4 in solution, immobilized amine-linked TasQ, Zn2+, read-out: KD calculated from the on- and off-rates", "value": "~0.02", "unit": "µM"}, {"measurement": "Kd", "setting": "[2]; fl-HDAC4 in solution, immobilized amine-linked TasQ, Zn2+, read-out: KD from the steady state dose-response curve", "value": "~0.13", "unit": "µM"}, {"measurement": "EC50", "setting": "[3]", "value": 1, "unit": "µM"}]}
